{"source": "patent US9879278B2", "about": "“Non-viral episomal suicide construct” (WAKE FOREST UNIVERSITY HEALTH SCIENCES, priority 2012, dated 2018)", "key": {"NCCIT cells [1]": {"tested_on": "NCCIT cells", "assay": "OCT4 immunofluorescence of RA-differentiated cells with ganciclovir"}, "NCCIT (pSuicide) cells [2]": {"tested_on": "NCCIT (pSuicide) cells", "assay": "OCT4 immunofluorescence of RA-differentiated cells with ganciclovir", "format": "cell-based, human", "description": "(§1) One aliquot of cells was maintained in differentiation medium containing 2 μmol/L ganciclovir for 7 days (for in vitro immuno-analysis) or 14 days (for in vivo tumor formation). As a negative control, counterpart cells were grown in differentiation medium containing 0.1% DMSO in which ganciclovir is dissolved.\nBriefly, differentiated NCCIT cells growing on chamber slides were fixed in 4% PFA for 15 min at room temperature and permeabilized in 0.2% Triton X-100/PBS for 10 min. After blocking with 10% horse serum, cells were incubated with 3%0/horse serum diluted (1:50) OCT4 antibody (Santa Cruz Biotechnology) for 1 h at room temperature, followed by three washes in PBS-T (0.1% Tween 20 in phosphate-buffered saline). […] Images were captured under a fluorescent microscope."}, "NCCIT (pSuicide) cells [3]": {"tested_on": "NCCIT (pSuicide) cells", "assay": "Flow cytometry of OCT4-expressing cells after RA and ganciclovir", "format": "cell-based, human", "description": "as §1\n(§2) Cells were trypsinized and about 5×10^5 cells were fixed in 2% paraformaldehyde for 10 min at room temperature. Cells were pelleted and permeabilized by resuspension with vigorous vortexing in 500 μl iced-cold methanol and incubated at 4° C. for at least 10 min. After 3 washes with staining buffer (PBS with 1% BSA), the cells were resuspended in 100 μl OCT4 antibody (Santa Cruz Biotechnology), diluted to 1:100 with staining buffer, and incubated for 30 min at 4° C. The cells were washed 3 times with staining buffer and incubated in 1:300 diluted Cy5-conjugated goat anti-mouse Fab for 30 min at 4° C. The cells were assessed for OCT4 expression using a BD FACSCalibur cytometer (BD Biosciences) with CellQuest software."}, "NCCIT cells [4]": {"tested_on": "NCCIT cells", "assay": "Flow cytometry of OCT4-expressing cells after RA and ganciclovir", "format": "cell-based, human", "description": "as §1, §2"}, "[5]": {"tested_on": "RA-differentiated NCCIT(pSuicide) cells", "assay": "Tumor development from RA-differentiated NCCIT(pSuicide) cells with or without in vitro ganciclovir selection", "format": "in vivo, SCID mice", "description": "as §1\nTrypsinized cells washed in PBS were resuspended in ice-cold PBS containing 30% BD Matrigel (BD Biosciences), drawn into an ice-cold 1-mL syringe, and kept on ice for subcutaneous injection into 8-˜12-week-old female immunodeficient SCID mice (Charles River Laboratories, Wilmington, Mass.) as previously described (Prokhorova et al., 2009, Stem Cells Dev 2009; 18:47-54). For undifferentiated NCCIT and NCCIT (pSuicide) cells, 1.5×10^6 cells in 100 μl volume were injected for each mouse. For differentiated NCCIT (pSuicide) cells, 3×10^6 cells were injected.\n(§3) When tumors reached about 8 mm in size, ganciclovir (50 mg/kg body weight) was delivered intraperitoneally daily for 2-3 weeks. Each tumor was regarded as a prolate spheroid and the greatest longitudinal diameter (L) and greatest transverse diameter (B) were monitored with a caliper every 2 days by the same person. The two dimensions were to lie perpendicular to each other in a plane tangential to the body wall. Tumor size was estimated from the formula V=½(L×B^2) as previously described (Euhus et al., 1986, J Surg Oncol 31:229-34). The size of tumors formed by NCCIT and NCCIT (pSuicide) cells was compared by analysis of variation (ANOVA), setting as 1 the volume on the day ganciclovir was first delivered."}, "NCCIT (pSuicide) cells [6]": {"tested_on": "NCCIT (pSuicide) cells", "assay": "Cell survival under ganciclovir treatment", "format": "cell-based, human", "description": "(§4) NCCIT and HeLa cells with and without pSuicide episomal DNA were treated with and without 2 μmol/L ganciclovir. Cell numbers and morphology were compared 7 days after treatment."}, "NCCIT (pSuicide) cells [7]": {"tested_on": "NCCIT (pSuicide) cells", "assay": "Western blotting of OCT4A after RA-induced differentiation and ganciclovir", "format": "cell-based, human", "details": "RA-induced NCCIT (pSuicide) cells treated with ganciclovir", "description": "as §1\n(§5) Cells were lysed in RIPA buffer with protease inhibitors (0.5 mmol/L PMSF and 1×Complete Protease Inhibitor Cocktail from Roche) for SDS-PAGE and Western blotting analyses. Monoclonal anti-β-actin antibody was from Sigma and used at 1:5000 (St Louis, Mo.). Rabbit anti-HSV thymidine kinase antiserum was obtained from Dr. William Summers of Yale University (1:5000); anti-OCT4A antibody was from Santa Cruz Biotechnology (Santa Cruz, Calif.) and used at 1:1000. Horseradish peroxidase (HRP)-conjugated secondary antibodies (1:1000) were purchased from Pierce (Rockford, Ill.). Chemiluminescent reagents from Pierce were used to visualize the protein signals on an LAS-3000 imaging system (Fujifilm). The Integrated Density function (Image J software) was used to quantify the expression of individual proteins after normalized by β-actin."}, "NCCIT cells [8]": {"tested_on": "NCCIT cells", "assay": "Western blotting of OCT4A after RA-induced differentiation and ganciclovir", "format": "cell-based, human", "details": "ganciclovir added to RA-induced NCCIT cells", "description": "as §1, §5"}, "HeLa (pSuicide) cells": {"tested_on": "HeLa (pSuicide) cells", "assay": "Cell survival under ganciclovir treatment", "format": "cell-based", "description": "as §4"}, "tumors from NCCIT cells": {"tested_on": "tumors from NCCIT cells", "assay": "In vivo ganciclovir treatment of tumors", "set-up": "species or system SCID mice", "description": "as §3, with “Trypsinized cells washed in PBS were resuspended in ice-cold PBS containing 30% BD Matrigel (BD Biosciences), drawn into an ice-cold 1-mL syringe, and kept on ice for subcutaneous injection into 8-˜12-week-old female immunodeficient SCID mice (Charles River Laboratories, Wilmington, Mass.) as previously described (Prokhorova et al., 2009, Stem Cells Dev 2009; 18:47-54). For undifferentiated NCCIT and NCCIT (pSuicide) cells, 1.5×10^6 cells in 100 μl volume were injected for each mouse. For differentiated NCCIT (pSuicide) cells, 3×10^6 cells were injected. When” for “When”"}, "[9]": {"tested_on": "tumors from NCCIT (pSuicide) cells", "assay": "In vivo ganciclovir treatment of tumors", "set-up": "species or system SCID mice", "description": "as §3, with “Trypsinized cells washed in PBS were resuspended in ice-cold PBS containing 30% BD Matrigel (BD Biosciences), drawn into an ice-cold 1-mL syringe, and kept on ice for subcutaneous injection into 8-˜12-week-old female immunodeficient SCID mice (Charles River Laboratories, Wilmington, Mass.) as previously described (Prokhorova et al., 2009, Stem Cells Dev 2009; 18:47-54). For undifferentiated NCCIT and NCCIT (pSuicide) cells, 1.5×10^6 cells in 100 μl volume were injected for each mouse. For differentiated NCCIT (pSuicide) cells, 3×10^6 cells were injected. When” for “When”"}, "[10]": {"details": "3 × 10^6 cells/mouse, SCID mice"}, "[11]": {"details": "2 μmol/L ganciclovir for 7 days"}}, "note": "Values joined by “and” are separate entries in the source; they are usually repeats but may differ in a detail not shown here. Equal entries are not always repeated. “Also recorded” adds a separate entry of the source."}
{"smiles": "CC1=C(/C=C/C(C)=C/C=C/C(C)=C/C(=O)O)C(C)(C)CCC1", "note": "[RA, retinoic acid]", "values": [{"measurement": "cells induced to differentiate (OCT4A-negative)", "setting": "NCCIT cells [1]; 20 μmol/L retinoic acid", "value": "about 50%"}, {"measurement": "cells induced to differentiate (OCT4A-negative)", "setting": "NCCIT (pSuicide) cells [2]; 20 μmol/L retinoic acid, NCCIT (pSuicide) cells", "value": "about 50%"}, {"measurement": "percentage of OCT4A-positive cells", "setting": "NCCIT (pSuicide) cells [3]; RA-treated NCCIT (pSuicide) cells before ganciclovir treatment", "value": "59.10%±0.5%"}, {"measurement": "OCT4A-positive cells", "setting": "NCCIT (pSuicide) cells [3]; after RA induction, NCCIT (pSuicide) cells", "value": "40-60%"}, {"measurement": "OCT4A-positive cells", "setting": "NCCIT cells [4]; after RA induction, NCCIT cells", "value": "40-60%"}, {"measurement": "No. mice with tumor 0-3 Months postinjection", "setting": "[5]; [10]", "value": 6}, {"measurement": "No. mice with tumor 3-5 Months postinjection", "setting": "[5]; [10]", "value": 1}, {"measurement": "No. mice with tumor Total", "setting": "[5]; [10]", "value": 7}]}
{"smiles": "Nc1nc(O)c2ncn(COC(CO)CO)c2n1", "note": "[ganciclovir]", "values": [{"measurement": "cell killing", "setting": "NCCIT (pSuicide) cells [6]; [11]", "value": "killed"}, {"measurement": "proliferation", "setting": "NCCIT (pSuicide) cells [6]; ganciclovir treatment", "value": "affected"}, {"measurement": "elimination of OCT4A-positive cells", "setting": "NCCIT cells [1]; 2 μmol/L ganciclovir for 7 days after 10 days RA", "value": "did not eliminate"}, {"measurement": "OCT4A expression", "setting": "NCCIT (pSuicide) cells [7]", "value": "undetectable"}, {"measurement": "OCT4A expression", "setting": "NCCIT cells [8]", "value": "did not reduce"}, {"measurement": "cell killing", "setting": "HeLa (pSuicide) cells; [11]", "value": "not"}, {"measurement": "proliferation", "setting": "HeLa (pSuicide) cells; ganciclovir treatment", "value": "not affected and not"}, {"measurement": "elimination of OCT4A-positive cells", "setting": "NCCIT (pSuicide) cells [2]; 2 μmol/L ganciclovir for 7 days after 10 days RA, NCCIT (pSuicide) cells", "value": "eliminated"}, {"measurement": "cells with nuclear staining of OCT4A antibody", "setting": "NCCIT (pSuicide) cells [2]; 1670 immunostained ganciclovir-treated NCCIT (pSuicide) cells examined", "value": "none"}, {"measurement": "percentage of OCT4A-positive cells", "setting": "NCCIT (pSuicide) cells [3]; RA-treated NCCIT (pSuicide) cells after ganciclovir treatment", "value": "2.27%±0.12%"}, {"measurement": "percentage of OCT4A-positive cells", "setting": "NCCIT cells [4]; RA-treated NCCIT cells after ganciclovir treatment", "value": "30.18%±2.46%"}, {"measurement": "Tumors responded to ganciclovir", "setting": "tumors from NCCIT cells; NCCIT-derived tumors, ganciclovir 50 mg/kg intraperitoneally daily", "value": "0/7"}, {"measurement": "tumor growth", "setting": "tumors from NCCIT cells; tumors from NCCIT cells, ganciclovir 50 mg/kg i.p. daily for two weeks", "value": "continued to grow and not"}, {"measurement": "Tumors responded to ganciclovir", "setting": "[9]; NCCIT(pSuicide)-derived tumors, ganciclovir 50 mg/kg intraperitoneally daily", "value": "4/4"}, {"measurement": "tumor growth", "setting": "[9]; tumors from NCCIT (pSuicide) cells, ganciclovir 50 mg/kg i.p. daily for two weeks", "value": "stopped growing; also recorded: inhibited growth"}, {"measurement": "tumor growth", "setting": "[9]; two mice with tumors from differentiated NCCIT (pSuicide) cells treated with ganciclovir", "value": "inhibited"}, {"measurement": "mice that developed tumors of mice injected with ganciclovir-treated cells", "setting": "[5]; cells treated with ganciclovir for 14 days before injection, 3 months after injection", "value": "1 of 12 and 1/14"}]}
